The text below walks through data of ChEMBL document CHEMBL1139726, “Identification of novel inhibitors of UDP-Glc 4'-epimerase, a validated drug target for african sleeping sickness” (Bioorg Med Chem Lett, 2006).

Test [1] has as its system Trypanosoma brucei. Kind of test: Inhibition of Trypanosoma brucei GalE at 50 uM.
The subject of test [2] is CHO-K1. The test is described as follows: Cytotoxicity against CHO-K1 cells by Alamar blue assay. It counts as cell-based. The conditions noted are these: Cricetulus griseus. In general terms: Alamar Blue is a resazurin reagent that responds to reducing activity.
A short description of test [3]: Inhibition of Trypanosoma brucei GalE by HPAEC assay.
In test [4] the target is T1, UDP-glucose 4-epimerase (Homo sapiens, UniProt Q14376).
T1 sequence (Q14376 whole entry): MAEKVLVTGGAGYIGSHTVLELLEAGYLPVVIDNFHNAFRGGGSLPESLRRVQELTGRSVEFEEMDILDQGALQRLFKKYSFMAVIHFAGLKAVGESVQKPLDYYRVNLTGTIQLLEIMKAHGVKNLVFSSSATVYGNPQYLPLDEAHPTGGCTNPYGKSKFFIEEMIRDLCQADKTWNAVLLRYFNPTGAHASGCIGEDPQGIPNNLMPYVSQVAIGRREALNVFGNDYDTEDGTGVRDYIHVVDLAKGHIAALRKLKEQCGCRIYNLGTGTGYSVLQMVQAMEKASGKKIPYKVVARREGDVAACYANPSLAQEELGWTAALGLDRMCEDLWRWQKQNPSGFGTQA
The test is described as follows: Inhibition of human GalE by HPAEC assay.

Test [5] deals with Trypanosoma brucei. Kind of test: Cytotoxicity against Trypanosoma brucei by Alamar blue assay. The class given is organism-based.
Test [6] in a line: Inhibition of Trypanosoma brucei GalE after 1 hr by HPAEC assay.

pEC50, pIC50: −log10 of the molar value. Where only a bound is given, the exact number is not on record here.

Regarding `CC/C(=C(/CC)c1ccc(O)cc1)c1ccc(O)cc1` [DIETHYLSTILBESTROL], in test [1], the inhibition (as a rule, the percentage by which the read-out fell short of the control) is > 75%. The pEC50 (commonly the EC50 on a negative log10 scale, so that one unit is a factor of ten) is 5.07 in test [2] and 5.55 in test [5]. In addition, the pIC50 (usually the negative decadic logarithm of the IC50, by convention in mol/L) in test [3] is 4.77; in test [4], 4.12.
For `O=c1c2ccccc2[se]n1-c1ccccc1` [EBSELEN], in that order: > 75%, 5.21, 5.39, 6.21 and 7.85.
For `C=C(CC)C(=O)c1ccc(OCC(=O)O)c(Cl)c1Cl` [ETHACRYNIC ACID], in that order: > 75%, 4.25, 5.48, 5.51 and 4.85.
As for `Clc1cc(Cl)c(OCC#CI)cc1Cl` [HALOPROGIN], the inhibition in test [1] is > 75%. For the same compound, the pIC50 in test [6] was < 4.00; in test [4] it was 6.30. The pEC50 in test [2] is 6.22; in test [5], 6.52.
`O=C(NCCSSCCNC(=O)/C(Cc1ccc(O)c(Br)c1)=N/O)/C(Cc1ccc(O)c(Br)c1)=N/O` [PSAMMAPLIN A]: the inhibition in test [1] was > 75%. Also, the figures for the pEC50 in test [2] and in test [5] were 6.05 and 5.59, respectively. For the same compound, the negative-log IC50 (pIC50) in test [3] is 4.82; in test [4] it was 5.44.
